In article PMC11456921 (RSC Advances, 2024):
In brackets after ≈: the same amount, converted by molar mass. Values belong to the molecule of their own block, whether it stands above or below them.

Legend:
GSK3β = GSK3β (Homo sapiens, UniProt P49841); format: biochemical
[1] = system: HEp-2 human laryngeal carcinoma cell line; assay: In vitro anti-proliferative assay, SRB method, HEp-2; format: cell-based; details: for IC50: Homo sapiens, HEp-2, 48 h, read-out: IC50 against HEp-2; for HEp-2 (% inhibition): single concentration 100 μg mL^−1, 48 h, SRB, mean ± SD
CDK2/cyclin A = CDK2/cyclin A (Homo sapiens, UniProt P24941); format: biochemical
[2] = system: MCF-7 human breast carcinoma cell line; assay: In vitro anti-proliferative assay, sulforhodamine-B; format: cell-based; details: single concentration 100 μg mL^−1, 48 h, SRB; mean ± SD
[3] = system: Vero normal African green monkey kidney cell line; assay: In vitro anti-proliferative assay, SRB method, normal Vero cells; format: cell-based; details: single concentration 100 μg mL^−1, 48 h, mean ± SD
HEp-2 cells [4] = assay: Total nitrate/nitrite; format: cell-based, human; details: HEp-2, treated with IC50 for 48 h
HEp-2 cells [5] = assay: Reduced glutathione; format: cell-based, human; details: HEp-2, treated with IC50 for 48 h
HepG2 cells [6] = assay: Cell cycle analysis by flow cytometry; format: cell-based, human; details: HepG2, 9.5 μg mL^−1 (IC50), 24 h
HepG2 cells [7] = assay: Reduced glutathione; format: cell-based, human; details: HepG2, treated with IC50 for 48 h
[8] = system: HepG2 human hepatocellular carcinoma cell line; assay: In vitro anti-proliferative assay, SRB method, HepG2; format: cell-based
HepG2 cells [9] = assay: Apoptosis detection, annexin V-FITC/PI flow cytometry; format: cell-based, human; details: HepG2, 9.5 μg mL^−1 (IC50), 24 h; DMSO control 1.18%
HepG2 cells [10] = assay: Total nitrate/nitrite; format: cell-based, human; details: HepG2, treated with IC50 for 48 h

Chain of GSK3β (P49841 whole entry): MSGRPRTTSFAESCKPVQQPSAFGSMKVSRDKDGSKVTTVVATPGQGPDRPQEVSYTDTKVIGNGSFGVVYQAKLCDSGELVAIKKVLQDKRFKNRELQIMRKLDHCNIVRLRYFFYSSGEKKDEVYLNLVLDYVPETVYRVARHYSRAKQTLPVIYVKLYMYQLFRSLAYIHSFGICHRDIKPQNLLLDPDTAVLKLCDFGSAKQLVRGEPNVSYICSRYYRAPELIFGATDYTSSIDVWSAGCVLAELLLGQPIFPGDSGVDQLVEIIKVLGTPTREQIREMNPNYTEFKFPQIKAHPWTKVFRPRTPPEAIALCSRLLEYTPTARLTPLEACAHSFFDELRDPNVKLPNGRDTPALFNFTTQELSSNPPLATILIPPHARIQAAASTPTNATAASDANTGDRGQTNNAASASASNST

IC50 (GSK3β): 2.25 µM | IC50 [1]: 7.5 mg/L (≈ 38.6 µM) | IC50 (CDK2/cyclin A): 16.7 µM | Roscovitine inhibitory activity against CDK2/cyclin A relative to the compound (CDK2/cyclin A; from IC50 values of Table 2): more than 3.5 times
SMILES: C/C(=N\NC(N)=S)c1ccccn1 [1a, (E)-2-(1-(pyridin-2-yl)ethylidene)hydrazine-1-carbothioamide]
GSK3β inhibitory activity compared with CHIR-99021 (GSK3β; from IC50 values of Table 2): the reference drug showing nearly six times its inhibitory activity | HEp-2 (% inhibition) [1]: 79.91 ± 0.7%

SMILES: CCn1c(C)c(C(C)=O)s/c1=N/N=C(\C)c1ccccn1 [3b, 1-((E)-3-Ethyl-4-methyl-2-(((E)-1-(pyridin-2-yl)ethylidene)hydrazono)-2,3-dihydrothiazol-5-yl)ethan-1-one]
MCF-7 (% inhibition) [2]: 73.52 ± 1.6%

SMILES: C/C(=N\N=C1/NC(=O)C(C)S1)c1ccccn1 (stereo not shown) [7a, (E)-5-Methyl-2-(((E)-1-(pyridin-2-yl)ethylidene)hydrazono)thiazolidin-4-one]
MCF-7 (% inhibition) [2]: 72.79 ± 1.3%

IC50 (GSK3β): 0.485 µM | IC50 [1]: 5.9 mg/L (≈ 21.4 µM) | IC50 (CDK2/cyclin A): 2.44 µM | Stronger inhibitory activity against CDK2/cyclin A compared with roscovitine (CDK2/cyclin A; from IC50 values of Table 2): 1.3 fold
SMILES: CC(=O)C1S/C(=N/N=C(\C)c2ccccn2)NC1=O (stereo not shown) [8a, (E)-5-Acetyl-2-(((E)-1-(pyridin-2-yl)ethylidene)hydrazono)thiazolidin-4-one]
Vero (% inhibition) [3]: 44.24 ± 2.8% | Increase of NOx level compared to untreated cells (HEp-2 cells [4]): 19% | Reduction in GSH content compared to untreated cells (HEp-2 cells [5]): 14% | HEp-2 (% inhibition) [1]: 78.67 ± 2.5%

SMILES: CCN1C(=O)/C(=C\c2ccc(F)cc2)S/C1=N/N=C(\C)c1ccccn1 [9b, (E)-3-Ethyl-5-((E)-4-fluorobenzylidene)-2-(((E)-1-(pyridin-2-yl)ethylidene)hydrazono)thiazolidin-4-one]
MCF-7 (% inhibition) [2]: 70.58 ± 1.8%

SMILES: C/C(=N\N=C1/NC(=O)/C(=C\c2ccc(Cl)cc2)S1)c1ccccn1 [10a, (E)-5-((E)-4-Chlorobenzylidene)-2-(((E)-1-(pyridin-2-yl)ethylidene)hydrazono)thiazolidin-4-one]
MCF-7 (% inhibition) [2]: 71.32 ± 3.4%

IC50 (GSK3β): 0.337 µM | IC50 ([8]; Homo sapiens, HepG2, 48 h, read-out: IC50 against HepG2): 9.5 mg/L (≈ 27.1 µM) | IC50 (CDK2/cyclin A): 1.13 µM | Stronger inhibitory activity against CDK2/cyclin A compared with roscovitine (CDK2/cyclin A; from IC50 values of Table 2): 2.2 fold
SMILES: C/C(=N\N=c1/[nH]c(C)c(/N=N/c2ccc(C)cc2)s1)c1ccccn1 [13a, (E)-4-Methyl-2-(((E)-1-(pyridin-2-yl)ethylidene)hydrazono)-5-((E)-p-tolyldiazenyl)-2,3-dihydrothiazole]
Vero (% inhibition) [3]: 41.81 ± 2.3% | Cells in G0–G1 phase (%DIP G1) (HepG2 cells [6]): 59.62% | Reduction in GSH level compared to untreated cells (HepG2 cells [7]): 33% | HepG2 (% inhibition) ([8]; single concentration 100 μg mL^−1, 48 h, SRB, mean ± SD): 76.56 ± 1.3% | Necrotic cells (HepG2 cells [9]): 3.25% | Increase of NOx level compared to untreated cells (HepG2 cells [10]): 25%
